Here are results for 3 compounds from paper PMC8348310, “Antioxidants Isolated from Elaeagnus umbellata (Thunb.) Protect against Bacterial Infections and Diabetes in Streptozotocin-Induced Diabetic Rat Model” (Molecules, 2021).

Where “and” joins values, the source holds several entries; their conditions need not be identical. Identical values can stand only once.

A short description of experiment [1]: ABTS free radical scavenging assay. It counts as biochemical. As to conditions: for ABTS IC50: linear regression of % scavenging vs concentration. On the procedure:
ABTS (2,2′-azinobis-3-ethylbenzothiazoline-6-sulfonic acid) free radicals inhibition potential were determined according to the reported assay. ABTS solution was prepared in methanol (100 mL). In total, 300 µL of compound (morin, phloroglucinol, and 1-hexyl benzene) was mixed thoroughly with 3.0 mL ABTS solution and incubated for six minutes. Finally, the absorbance was measured through UV spectrophotometer using ascorbic acid as positive control. Percent ABTS free radicals scavenging potential was calculated using the equation No. 1.
(§1) All the in vitro and in vivo experiments were analyzed in three replicates and determined as mean ± SEM. Student’s t-test and one way ANOVA followed by Dunnett’s post hoc multiple comparison test was used. p ≤ 0.05 were considered as significant. Linear regression analysis was used to calculate the IC50 value for % DPPH, ABTS, α-amylase, and α-glucosidase inhibition against the different concentrations of the test samples by means of Excel program 2007.

Experiment [2] addresses T1, Type-VI α-amylase (porcine pancreas) (Sus scrofa, UniProt P00690).
T1 construct: purchased Sigma Aldrich (Darmstadt, Germany); host or cells: porcine pancreas
T1 sequence (P00690 16-511): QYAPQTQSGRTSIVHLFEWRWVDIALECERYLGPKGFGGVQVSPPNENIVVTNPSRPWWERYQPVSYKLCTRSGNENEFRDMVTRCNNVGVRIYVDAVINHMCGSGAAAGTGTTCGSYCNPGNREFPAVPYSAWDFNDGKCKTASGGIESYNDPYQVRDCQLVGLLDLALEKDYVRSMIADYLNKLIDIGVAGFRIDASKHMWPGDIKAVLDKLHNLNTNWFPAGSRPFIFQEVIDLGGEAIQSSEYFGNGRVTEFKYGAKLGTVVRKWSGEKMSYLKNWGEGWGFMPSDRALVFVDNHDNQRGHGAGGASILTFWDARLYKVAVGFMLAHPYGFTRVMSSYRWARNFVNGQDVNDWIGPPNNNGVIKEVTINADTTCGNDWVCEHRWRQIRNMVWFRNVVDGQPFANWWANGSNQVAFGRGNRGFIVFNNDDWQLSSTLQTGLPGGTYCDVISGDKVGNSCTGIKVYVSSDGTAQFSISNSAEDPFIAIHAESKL
Nature of the experiment: In vitro α-amylase inhibition assay (DNSA). The format is biochemical. Conditions: for inhibition at 31.05 µg/mL / inhibition at 62.5 µg/mL / inhibition at 125 µg/mL / inhibition at 250 µg/mL / inhibition at 500 µg/mL / inhibition at 1000 µg/mL: read-out: % α-Amylase Inhibition Mean ± SEM; for IC50: linear regression of % inhibition vs concentration. On the procedure: The α-amylase inhibition activity of morin was assessed using 3, 5-dinitrosalicylic acid (DNSA) assay. Morin, phloroglucinol, and 1-hexyl benzene were dissolved in mixture of 10% DMSO, 0.02M Na2HPO4/NaH2PO4 buffer, and 0.006M NaCl (pH 6.9) and finally dilutions (31.05, 62.5, 125, 250, 500 and 1000 µg/mL) were prepared. In total, 200 μL α-amylase (2 units/mL) was mixed with 200 μL morin and incubated at 30 °C for 10 min. After that, 200 μL starch (1%) was added to each serial dilution and incubated for 3 min. To stop the reaction 200 μL sodium potassium tartrate tetrahydrate reagent, 2M NaOH, and […] DNSA (96mM) reagent were added to the reaction mixture. The reaction mixtures were boiled for 10 min at 85–90 °C in a water bath. After cooling the mixture was diluted with 5mL distilled water and finally at 540 nm absorbance was recorded. A blank solution was prepared containing only isolated compound morin but no enzyme. […] The α-amylase enzyme inhibitory activity was calculated by the following Equation (2): (2) % α − amylase Inhibition =control absorbance−sample absorbance/control absorbance×100
as §1

For experiment [3], the system named is Salmonella typhi. Nature of the experiment: Agar well diffusion, zone of inhibition. The format is cell-based. As to conditions: 24 h; for zone of inhibition at 100 µg/mL: Salmonella enterica, TYPHI; for Zone of Inhibition: Salmonella typhi, 100 µg/mL, 37 °C.
The subject of experiment [4] is STZ-induced diabetic rats. Nature of the experiment: STZ-induced diabetic rat model: fasting blood glucose and body weight. The format is in vivo, Sprague Dawley adult albino rats. On the procedure: Sprague Dawley adult albino rats (body weight range = 170–200 g) were used in in vivo studies. The animals were purchased from Rifah Institute of Pharmaceutical Sciences Islamabad. The entire animals were given food and fresh water ad libitum. The animals were adjusted at room temperature around 22–25 °C. The animals were housed three rats per cage and maintained with light/dark cycle of about 12 h. All the in vivo procedures were carried out according to the ARRIVE guidelines and approval was taken from the Departmental Animal Ethical Committee (DAEC/2019/1), University of Malakand.
All the animals were separated into nine groups having eight animals each (Table 1). In the current investigational study STZ-induced diabetic model was used to evaluate the anti-hyperglycemic and anti-hyperlipidemic activity of isolated compound morin in chronic multiple dose experiment. All the animals were treated with their respective treatments for 21 days starting daily at 09:00 am. The fasting blood glucose levels were determined at 0, 4th, 7th, 10th, 15th, and 21st days with glucometer from the tail vein. Changes in the body weight were recorded for untreated control, diabetic, and treated groups in fasting condition from day 1 to day 21 of experimental period and are presented as % increase in body weight.
According to the reported protocol diabetes was induced into Sprague Dawley adult albino rats by intraperitoneal injection of STZ (50 mg/kg body weight). Blood samples were collected from the tail vein through glucometer strips by means of SD glucometer and the level of blood glucose was measured 72 h after STZ injection. Normal control groups were given normal saline (8 mL/kg, p.o.) as a vehicle, while isolated compound morin to the treatment groups from 3 days after STZ administration for 3 weeks. Animals with blood glucose levels higher than 300 mg/dL were considered diabetic. During the experiment the blood glucose level and body weights were measured.

For experiment [5], the system named is STZ-induced diabetic rats. Nature of the experiment: Pancreas histopathological assessment (H & E). The format is in vivo, Sprague Dawley adult albino rats. The text has this: For histopathological assessment, the pancreas tissues were removed immediately and washed with cold saline solution to remove the blood. Finally, the pancreas portions were fixed in 10% formalin, dehydrated with mixture of ethanol/xylene and then fixed with paraffin. Staining of tissue slides was done with hematoxylin and eosin (H & E) dye through automatic slide stainer (Sakura Tissue-Tek® DRS™ 2000; Tokyo, Japan). According to the reported assay, the stained slides were observed under microscope to see any variation in pancreatic tissue architecture of STZ-induced diabetic group and treated (glibenclamide/morin) groups.

Regarding `CCCCCCc1ccccc1` [1-Hexyl benzene, 1-hexylbenzene], the “% ABTS Scavenging Mean ± SEM” value in experiment [1] (31.05 µg/mL) is 19 ± 1.4 %. In addition, the “% ABTS Scavenging Mean ± SEM” value in experiment [1] (62.5 µg/mL) is recorded as 26 ± 0.5 %. The “% ABTS Scavenging Mean ± SEM” value in experiment [1] (125 µg/mL) is 31 ± 1.0 %. Also, in experiment [1] (250 µg/mL), the “% ABTS Scavenging Mean ± SEM” value worked out at 39 ± 1.5 %. In addition, the “% ABTS Scavenging Mean ± SEM” value in experiment [1] (500 µg/mL) is recorded as 47 ± 2.2 %. Moreover, the “% ABTS Scavenging Mean ± SEM” value in experiment [1] (1000 µg/mL) came out at 55 ± 1.1 %. Besides, the “ABTS IC50” value in experiment [1] turned out to be 129 µg/mL. Moreover, in experiment [2], the inhibition at 31.05 µg/mL turned out to be 22 ± 1.1%, the inhibition at 62.5 µg/mL came to 28 ± 2.1%, the inhibition at 125 µg/mL turned out to be 37 ± 1.4% and the inhibition at 250 µg/mL stood at 44 ± 0.5%. Also, in experiment [2], the inhibition at 500 µg/mL came out at 49 ± 2.1%, the inhibition at 1000 µg/mL came out at 55 ± 1.5% and the IC50 was 709 µM. Moreover, in experiment [3], the zone of inhibition at 100 µg/mL was 7.4 ± 1.2 mm and the “Zone of Inhibition” value turned out to be 7.4 ± 1.2 mm.

Take `O=c1c(O)c(-c2ccc(O)cc2O)oc2cc(O)cc(O)c12` [Morin, 2-(2,4-Dihydroxyphenyl)-3,5,7-trihydroxychromen-4-one]: the “% ABTS Scavenging Mean ± SEM” value in experiment [1] (31.05 µg/mL) is 45 ± 0.5 %; in experiment [1] (62.5 µg/mL), 57 ± 1.4 %; in experiment [1] (125 µg/mL) it was 64 ± 1.2 %; in experiment [1] (250 µg/mL) it was 75 ± 0.5 ^ns %; in experiment [1] (500 µg/mL), 80 ± 1.0 ^ns %; in experiment [1] (1000 µg/mL), 88 ± 1.0% and 88 ± 1.0 ^ns %. Moreover, the “ABTS IC50” value in experiment [1] is 40 µg/mL. Further, in experiment [2], the inhibition at 31.05 µg/mL was 37 ± 1.1%. In experiment [2], the inhibition at 62.5 µg/mL is 44 ± 2.1%. The inhibition at 125 µg/mL in experiment [2] is 54 ± 1.4%. For the same compound, the inhibition at 250 µg/mL in experiment [2] came out at 60 ± 0.5%. Also, the inhibition at 500 µg/mL in experiment [2] worked out at 67 ± 1.4%. Besides, the inhibition at 1000 µg/mL in experiment [2] amounted to 75 ± 1.5%. This compound showed an IC50 in experiment [2] of 182 µM. In addition, the zone of inhibition at 100 µg/mL in experiment [3] amounted to 16 ± 1.2 mm. In addition, in experiment [3], the “Zone of Inhibition” value came out at 16 ± 1.2 mm. For the same compound, the body weight gain result is “significant (p < 0.01) increases” in experiment [4] (morin 10 mg/kg body weight); “significant (p < 0.001) improvement” in experiment [4] (morin 15, 30, and 50 mg/kg body weight). Besides, the blood glucose level result is listed as “slowly reduce blood glucose level” in experiment [4] (morin 2 and 5 mg/kg body weight); “significant (p ˂ 0.01) decrease” in experiment [4] (morin oral 30, 15, 50 mg/kg body weight, vs diabetic control). In experiment [4] (morin 10, 15, 30, and 50 mg/kg body weight, compared to the diabetic control group), the glucose level result is “comparable decline in glucose level”. In addition, the pancreas histopathology entry in experiment [5] (morin 2, 5 mg/kg orally) is listed as “did not show restoration of pancreatic tissue”; in experiment [5] (morin 10, 15 mg/kg orally), “significant dose dependent improvement in cellular architecture”; in experiment [5] (morin 30, 50 mg/kg orally), “normal histological pattern of pancreas”.

Regarding `Oc1cc(O)cc(O)c1` [Phloroglucinol, Benzene-1,3,5-triol], the “% ABTS Scavenging Mean ± SEM” value in experiment [1] (31.05 µg/mL) was 25 ± 1.0 %. The “% ABTS Scavenging Mean ± SEM” value in experiment [1] (62.5 µg/mL) came to 33 ± 0.5 %. Besides, the “% ABTS Scavenging Mean ± SEM” value in experiment [1] (125 µg/mL) came to 39 ± 1.2 %. The “% ABTS Scavenging Mean ± SEM” value in experiment [1] (250 µg/mL) is 45 ± 1.0 %. The “% ABTS Scavenging Mean ± SEM” value in experiment [1] (500 µg/mL) stood at 51 ± 0.5 %. In addition, in experiment [1] (1000 µg/mL), the “% ABTS Scavenging Mean ± SEM” value is recorded as 64 ± 1.1 %. The “ABTS IC50” value in experiment [1] is recorded as 112 µg/mL. In experiment [2], the inhibition at 31.05 µg/mL was 29 ± 1%, the inhibition at 62.5 µg/mL is 32 ± 1.4%, the inhibition at 125 µg/mL was 39 ± 1.5% and the inhibition at 250 µg/mL came to 42 ± 0.4%. In experiment [2], the inhibition at 500 µg/mL came to 55 ± 1.1%, the inhibition at 1000 µg/mL is 63 ± 0.5% and the IC50 is 753 µM. Further, in experiment [3], the zone of inhibition at 100 µg/mL amounted to 12 ± 1.1 mm and the “Zone of Inhibition” value turned out to be 12 ± 1.1 mm.

Usually inhibition stands for the relative decrease from the control value, in per cent. One may read the IC50 as the midpoint of a concentration-inhibition curve. A higher IC50 goes with weaker potency. A word on the zone of inhibition: it is the size of the clear area around the sample on an inoculated plate.
